We go through 21 compounds from ChEMBL document CHEMBL5360560, “Anti-Vibrio potential of natural products from marine microorganisms” (Eur J Med Chem, 2023).

What all share (format): functional
For assay [1], the system named is Vibrio parahaemolyticus. Briefly: Antimicrobial activity against Vibrio parahaemolyticus assessed as bacterial growth inhibition.
The test system of assay [2] is Vibrio cholerae. Briefly: Antimicrobial activity against Vibrio cholerae assessed as bacterial growth inhibition.
Assay [3] concerns Vibrio parahaemolyticus. Briefly: Antimicrobial activity against Vibrio parahaemolyticus QDIO-10 assessed as bacterial growth inhibition measured after 24 hrs by microtitre plate reader assay.
Assay [4] has as its system Vibrio anguillarum. Briefly: Antimicrobial activity against Vibrio anguillarum QDIO-8 assessed as bacterial growth inhibition measured after 24 hrs by microtitre plate reader assay.
Assay [5] concerns Vibrio harveyi. Briefly: Antimicrobial activity against Vibrio harveyi QDIO-9 assessed as bacterial growth inhibition measured after 24 hrs by microtitre plate reader assay.
For assay [6], the system named is Vibrio parahaemolyticus. Briefly: Antimicrobial activity against Vibrio parahaemolyticus MISR 21116 assessed as bacterial growth inhibition measured after 24 hrs by broth microdilution assay. Background: Broth dilution looks for growth in wells or tubes with falling amounts of substance.
Assay [7] concerns Vibrio vulnificus. Briefly: Antimicrobial activity against Vibrio vulnificus MISR 20716 assessed as bacterial growth inhibition measured after 24 hrs by broth microdilution assay.
The test system of assay [8] is Vibrio alginolyticus. Briefly: Antimicrobial activity against Vibrio alginolyticus MISR 30816 assessed as bacterial growth inhibition measured after 24 hrs by broth microdilution assay.
Assay [9] has as its system Vibrio anguillarum. Briefly: Antimicrobial activity against Vibrio anguillarum assessed as zone of inhibition per disk at 100 ug. To be noted: read-out: IZ.
Assay [10] concerns Vibrio anguillarum. Briefly: Antimicrobial activity against Vibrio anguillarum assessed as zone of inhibition per disc at 100 ug measured after 24 hrs by disc diffusion assay. To be noted: read-out: IZ.
In assay [11] the test system is Vibrio natriegens. Briefly: Antimicrobial activity against Vibrio natriegens assessed as bacterial growth inhibition.
Assay [12] has as its system Vibrio brasiliensis. Briefly: Antimicrobial activity against Vibrio brasiliensis assessed as bacterial growth inhibition.
Assay [13] has as its system Vibrio mediterranei. Briefly: Antimicrobial activity against Vibrio mediterranei assessed as bacterial growth inhibition.
Assay [14] has as its system Vibrio alginolyticus. Briefly: Antimicrobial activity against Vibrio alginolyticus assessed as bacterial growth inhibition.
Assay [15] has as its system Vibrio parahaemolyticus. Briefly: Antimicrobial activity against Vibrio parahaemolyticus assessed as zone of inhibition.
The subject of assay [16] is Vibrio anguillarum. Briefly: Antimicrobial activity against Vibrio anguillarum assessed as zone of inhibition.
The test system of assay [17] is Vibrio harveyi. Briefly: Antimicrobial activity against Vibrio harveyi assessed as zone of inhibition.
Assay [18] has as its system Vibrio splendidus. Briefly: Antimicrobial activity against Vibrio splendidus assessed as zone of inhibition.
The test system of assay [19] is Vibrio alginolyticus. Briefly: Antimicrobial activity against Vibrio alginolyticus assessed as zone of inhibition.
Assay [20] concerns Vibrio harveyi. Briefly: Antimicrobial activity against Vibrio harveyi QDIO-9 assessed as bacterial growth inhibition.
Assay [21] deals with Vibrio parahaemolyticus. Briefly: Antimicrobial activity against Vibrio parahaemolyticus QDIO-10 assessed as bacterial growth inhibition.
Assay [22] concerns Vibrio vulnificus. Briefly: Antimicrobial activity against Vibrio vulnificus MCCC E1758 assessed as bacterial growth inhibition by resazurin dye based assay. (The colour change of resazurin is a common sign of viable cells or microbes.)
Assay [23] deals with Vibrio vulnificus. Briefly: Antimicrobial activity against Vibrio vulnificus MCCC E333 assessed as bacterial growth inhibition by resazurin dye based assay.

Values after ≈ are worked out from the molar mass of the structure shown.

With `O=C(O)c1cc(Cl)c[nH]1`, the MIC was 25 µg/mL (≈ 172 µM) in [1] and 100 µg/mL (≈ 687 µM) in assay [2].
With `CC(C)(O)CCCC(C)(O)c1ccc(C(=O)O)cc1O` (stereo unspecified), the MIC in assay [3], in assay [4] and in assay [5] was 4 µg/mL (≈ 14.2 µM) in each case.
Consider `C[C@@H]1CCC/C=C/[C@@H]2O[C@H](C[C@@H](O)C/C=C\C=C\[C@@H](O)C/C=C/C=C\C(=O)O1)[C@H]2O`, for which the MIC in [6], in [7] and in assay [8] was 64 µg/mL (≈ 153 µM) each time.
With `COc1cc(O)c2c(=O)oc3cc(O)cc(C)c3c2c1`, in assay [9], the zone of inhibition at 100 µg/disc was 9 mm.
Take `O=C1N[C@H](Cc2ccccc2)C(=O)N2CCC[C@@H]12`: the zone of inhibition at 100 µg/disc in [10] was determined as 24 mm.
For `O=C(O)c1ccc[nH]1`, the minimal inhibitory concentration (MIC) was found to be 25 µg/mL (≈ 225 µM) in assay [1] and 50 µg/mL (≈ 450 µM) in assay [2].
As for `O=C1N[C@@H](Cc2ccccc2)C(=O)N2CCC[C@@H]12`, the zone of inhibition at 100 µg/disc in assay [10] came to 25 mm.
Consider `Cc1cc2c(c(=O)[nH]1)O[C@H]([C@@H](O)CC(C)C)O2`, for which the MIC in assay [11] was 0.001 µg/mL (≈ 0.00418 µM).
Turning to `CC(C)[C@@H](C)/C=C/[C@@H](C)[C@H]1CC[C@@H]2[C@]1(C)CCC1[C@@]23OO[C@]2(C=C3O)C[C@@H](O)CC[C@]12C` (stereo partly specified), the minimum inhibitory concentration (MIC) in assay [12] turned out to be 32 µg/mL (≈ 72 µM); in [13] it was 8 µg/mL (≈ 18 µM).
Consider `COC(=O)[C@@H]1CCCN1C(=O)c1cc2c([nH]c3cc(OC)ccc32)c(C=C(C)C)n1`, for which the MIC in assay [14] came out at 32 µg/mL (≈ 78.5 µM).
Take `CC(=O)N[C@H]1[C@@H](O[C@]2(C)C=C[C@@H]([C@@H](C)CCC=C(C)C)CC2)O[C@H](CO)[C@@H](O)[C@@H]1O`: the “inhibition zone (IZ)” value in assay [15] is on record as 6.1 mm. The minimum inhibitory concentration (MIC) in assay [16], in assay [17] and in assay [18] was 6.1 µg/mL (≈ 14.3 µM) each time.
On to `CC(C)C[C@H]1NC(=O)[C@H]2C[C@H](O)CN2C1=O`, for which the “inhibition zone (IZ)” value in [19] is listed as 22 mm; in assay [15], 14 mm.
Turning to `O=C1N[C@H](Cc2ccccc2)C(=O)N2C[C@@H](O)C[C@@H]12`, the “inhibition zone (IZ)” value in [19] worked out at 20 mm; in [15] it was 12 mm.
On to `CC(C)[C@@H](C)/C=C/[C@@H](C)[C@H]1CC[C@H]2C3=CC(=O)[C@@]45C[C@@H](O)CC[C@]4(C)[C@]3(CC[C@]12C)O5`, for which the MIC in [12] was 16 µg/mL (≈ 37.5 µM).
Take `COC(=O)c1ccc([C@](C)(O)CCCC(C)(C)O)c(O)c1`: the MIC in assay [3], in assay [4] and in assay [5] was 4 µg/mL (≈ 13.5 µM) throughout.
Regarding `C=C[C@@]1(C)CCC2=C(C(=O)C=C3C(C)(C)CCC[C@]32O)[C@H]1O`, the minimal inhibitory concentration (MIC) in [20] and in assay [21] was 8 µg/mL (≈ 26.5 µM) throughout.
`CO[C@](C)(CCCC(C)(C)O)c1ccc(C(=O)O)cc1O`: the MIC in [3], in [4] and in [5] was 4 µg/mL (≈ 13.5 µM) each time.
As to `CC1(C)C=Cc2c(ccc3c2[N+]([O-])=C2C3CC34NC(=O)[C@@]5(CCCN5C3=O)C[C@H]4C2(C)C)O1` (stereo partly specified), the values for the MIC in assay [15] (Vibrio parahaemolyticus) and in [14] were 8 µg/mL (≈ 17.9 µM) and 16 µg/mL (≈ 35.8 µM), respectively.
On to `CC(C)C[C@@H]1NC(=O)[C@H]2C[C@H](O)CN2C1=O`, for which the “inhibition zone (IZ)” value stood at 20 mm in [19] and 12 mm in assay [15].
Turning to `C[C@]12CC[C@H](O)[C@](C)(CO)[C@@H]1CC[C@]1(C)[C@@H]2C[C@@H](O)[C@@H]2[C@@]3(C)CC[C@H]([C@](C)(O)CO)[C@@H]3CC[C@]21C`, the minimum inhibitory concentration (MIC) in assay [14] was 16 µg/mL (≈ 32.5 µM).
As to `Cc1c(O)c(C)c2c(c1O)C(=O)O[C@](C)(O)[C@H]2C`, the figures for the MIC in assay [22] and in assay [23] were 16.6 µg/mL (≈ 65.8 µM) and 15.3 µg/mL (≈ 60.7 µM), respectively.

By MIC is commonly meant the smallest concentration in the dilution series that meets the test's criterion for growth inhibition.
